Like-named read-outs stand apart in the source and are kept apart here.
How the values were obtained:
[1] = biological target: Human α2δ-1 subunit of Cav2.2 calcium channel (Homo sapiens (Human), UniProt P54289); assay: Binding Assay to Human α2δ-1 Subunit of Cav2.2 Calcium Channel; settings: human α2δ-1 enriched membranes, 15 nM [3H]-Gabapentin, read-out: Ki(nM) alpha2delta Hum
Procedure, shortened: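 Radioligand filtration binding at the α2δ-1 subunit, test compound at five concentrations; nonspecific binding defined with 10 μM pregabalin. Incubated 60 min at 27 °C, stopped by GF/C filtration (0.5% PEI presoaked) with ice-cold 50 mM Tris-HCl pH 7.4 washes; bound radioactivity counted by scintillation.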

[2] = biological target: Human norepinephrine transporter (NET) (Homo sapiens (Human), UniProt P23975); assay: Binding Assay to Human Norepinephrine Transporter (NET); settings: Table 2, dual compounds; human NET enriched membranes, 5 nM [3H]-Nisoxetin; read-out: Ki(nM) NET Hum
Protocol: Binding Assay to Human Norepinephrine Transporter (NET).
Human norepinephrine transporter (NET) enriched membranes (5 μg) were incubated with 5 nM of radiolabeled [3H]-Nisoxetin in assay buffer containing 50 mM Tris-HCl, 120 mM NaCl, 5 mM KCl, pH 7.4.
NSB (non specific binding) was measured by adding 10 μM desipramine. The binding of the test compound was measured in five different concentrations. After 60 min incubation at 4° C., binding reaction was terminated by filtering through Multiscreen GF/C (Millipore) presoaked in 0.5% polyethyleneimine in Vacuum Manifold Station, followed by 3 washes with ice-cold filtration buffer containing 50 mM Tris-HCl, 0.9% NaCl, pH 7.4.
Filter plates were dried at 60° C. for 1 hour and 30 μl of scintillation cocktail were added to each well before radioactivity reading.

Sequence of Human α2δ-1 subunit of Cav2.2 calcium channel (P54289 25-1103): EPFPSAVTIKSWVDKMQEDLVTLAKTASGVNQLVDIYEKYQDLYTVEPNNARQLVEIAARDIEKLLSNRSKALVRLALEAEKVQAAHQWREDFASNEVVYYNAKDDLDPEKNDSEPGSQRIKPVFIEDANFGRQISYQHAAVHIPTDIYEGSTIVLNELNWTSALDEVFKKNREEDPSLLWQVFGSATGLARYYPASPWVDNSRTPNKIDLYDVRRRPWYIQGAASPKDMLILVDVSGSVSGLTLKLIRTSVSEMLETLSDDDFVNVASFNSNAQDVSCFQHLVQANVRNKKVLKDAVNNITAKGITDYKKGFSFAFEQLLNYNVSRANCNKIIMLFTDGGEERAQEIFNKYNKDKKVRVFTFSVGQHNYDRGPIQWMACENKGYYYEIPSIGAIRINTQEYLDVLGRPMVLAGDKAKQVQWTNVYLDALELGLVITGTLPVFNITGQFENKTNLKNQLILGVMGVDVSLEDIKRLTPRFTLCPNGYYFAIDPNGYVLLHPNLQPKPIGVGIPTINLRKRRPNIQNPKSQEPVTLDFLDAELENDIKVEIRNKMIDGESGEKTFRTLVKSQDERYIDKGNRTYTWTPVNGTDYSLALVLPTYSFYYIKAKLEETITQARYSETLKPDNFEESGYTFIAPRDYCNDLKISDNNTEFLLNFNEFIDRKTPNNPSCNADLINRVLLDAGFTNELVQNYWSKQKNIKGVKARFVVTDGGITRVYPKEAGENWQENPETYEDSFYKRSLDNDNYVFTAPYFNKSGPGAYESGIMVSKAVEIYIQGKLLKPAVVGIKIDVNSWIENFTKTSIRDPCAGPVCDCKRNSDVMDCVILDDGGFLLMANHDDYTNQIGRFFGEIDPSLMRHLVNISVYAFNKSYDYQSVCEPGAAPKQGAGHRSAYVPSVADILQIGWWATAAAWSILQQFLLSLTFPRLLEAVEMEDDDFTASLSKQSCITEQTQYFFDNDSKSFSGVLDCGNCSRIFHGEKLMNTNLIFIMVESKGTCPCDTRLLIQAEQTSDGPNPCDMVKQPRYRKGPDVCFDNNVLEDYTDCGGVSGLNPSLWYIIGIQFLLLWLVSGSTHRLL
Sequence of Human norepinephrine transporter (NET) (P23975 whole entry): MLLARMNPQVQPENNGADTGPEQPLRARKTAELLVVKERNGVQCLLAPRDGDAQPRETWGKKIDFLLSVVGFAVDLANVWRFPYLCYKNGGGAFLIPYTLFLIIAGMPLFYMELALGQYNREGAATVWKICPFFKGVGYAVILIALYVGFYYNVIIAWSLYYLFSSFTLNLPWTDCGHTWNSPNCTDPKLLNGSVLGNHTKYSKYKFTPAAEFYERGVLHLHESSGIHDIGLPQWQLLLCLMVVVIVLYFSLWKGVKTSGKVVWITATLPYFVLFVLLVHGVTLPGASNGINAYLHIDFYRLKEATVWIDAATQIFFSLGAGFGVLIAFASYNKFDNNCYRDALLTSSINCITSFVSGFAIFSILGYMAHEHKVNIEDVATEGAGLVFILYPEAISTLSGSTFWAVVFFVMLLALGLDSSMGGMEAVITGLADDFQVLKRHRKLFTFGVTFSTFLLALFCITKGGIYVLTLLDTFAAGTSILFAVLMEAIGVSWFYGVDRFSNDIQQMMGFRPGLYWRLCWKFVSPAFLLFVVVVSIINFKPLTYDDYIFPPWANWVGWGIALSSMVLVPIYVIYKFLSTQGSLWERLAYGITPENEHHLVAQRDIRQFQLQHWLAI

| SMILES | Ki ([1]; Table 1) [nM] | Ki ([1]; Table 2, dual compounds) [nM] | Ki [2] [nM] |
| --- | --- | --- | --- |
| CNCC[C@H](Oc1ccc(CN2CCN(C)c3nc(N)ccc3C2=O)c(F)c1)c1ccccc1 [Example 137, (S)-8-amino-4-(2-fluoro-4-(3-(methylamino)-1-phenylpropoxy)benzyl)-1-methyl-1,2,3,4-tetrahydro-5H-pyrido[2,3-e][1,4]diazepin-5-one] | 100 to 500 | 100 to 500 | < 100 |
| CNCC[C@H](Oc1ccc(CN2CCCn3nccc3C2=O)cc1)c1cccs1 [Example 104, (S)-5-(4-(3-(methylamino)-1-(thiophen-2-yl)propoxy)benzyl)-5,6,7,8-tetrahydro-4H-pyrazolo[1,5-a][1,4]diazepin-4-one] | 100 to 500 | 100 to 500 | 100 to 500 |
| CNCC[C@H](Oc1ccc(CN2CCCn3nc(OC)cc3C2=O)c(C)c1)c1cccs1 [Example 134, (S)-2-methoxy-5-(2-methyl-4-(3-(methylamino)-1-(thiophen-2-yl)propoxy)benzyl)-5,6,7,8-tetrahydro-4H-pyrazolo[1,5-a][1,4]diazepin-4-one] | < 100 | < 100 | < 100 |
| CNCC[C@@H](Oc1cccc(N2CCN(C(C)C)CCC2=O)c1)c1cccs1 [Example 67, (R)-1-isopropyl-4-(3-(3-(methylamino)-1-(thiophen-2-yl)propoxy)phenyl)-1,4-diazepan-5-one] | 100 to 500 | 100 to 500 | 500 to 1000 |
| CNCCC(Oc1ccc(CN2CCN(C)c3ncccc3C2=O)c(F)c1)c1cccc(F)c1 (stereo not drawn) [Example 123, 4-(2-Fluoro-4-(1-(3-fluorophenyl)-3-(methylamino)propoxy)benzyl)-1-methyl-1,2,3,4-telrahydro-5H-pyrido[2,3-e][1,4]diazepin-5-one] | < 100 | < 100 | < 100 |
| CNCCC(Oc1cccc(N2CCN(C(C)C)CCC2=O)c1)c1cccs1 (stereo not drawn) [Example 60, 1-Isopropyl-4-(3-(3-(methylamino)-1-(thiophen-2-yl)propoxy)phenyl)-1,4-diazepan-5-one] | 500 to 3000 | 500 to 3000 | 500 to 1000 |
| CNCC[C@H](Oc1ccc(CN2CCN(C)c3ncccc3C2=O)c(F)c1)c1cccs1 [Example 108, (S)-4-(2-fluoro-4-(3-(methylamino)-1-(thiophen-2-yl)propoxy)benzyl)-1-methyl-1,2,3,4-tetrahydro-5H-pyrido[2,3-e)[1,4]diazepin-5-one] | < 100 | < 100 | 100 to 500 |
| CNCC[C@H](Oc1ccc(CN2CCN(C)c3nc(N)ccc3C2=O)cc1)c1cccs1 [Example 103, (S)-8-amino-1-methyl-4-(4-(3-(methylamino)-1-(thiophen-2-yl)propoxy)benzyl)-1,2,3,4-tetrahydro-5H-pyrido[2,3-e][1,4]diazepin-5-one] | < 100 | < 100 | < 100 |
| CNCC[C@H](Oc1ccc(CN2CCN(C)c3ncccc3C2=O)c(F)c1)c1ccccc1 [Example 116, (S)-4-(2-fluoro-4-(3-(methylamino)-1-phenylpropoxy)benzyl)-1-methyl-1,2,3,4-tetrahydro-5H-pyrido[2,3-e][1,4]diazepin-5-one] | < 100 | < 100 | < 100 |
| CNCCC(OCc1cccc(N2CCNCCC2=O)c1)c1ccccc1 (stereo not drawn) [Example 37, 4-(3-((3-(Methylamino)-1-phenylpropoxy)methyl)phenyl)-1,4-diazepan-5-one] | 500 to 3000 | 500 to 3000 | 100 to 500 |
| CNCCC(Oc1ccc(CN2CCN(C)c3ncccc3C2=O)cc1)c1ccc(F)cc1 (stereo not drawn) [Example 115, 4-(4-(1-(4-Fluorophenyl)-3-(methylamino)propoxy)benzyl)-1-methyl-1,2,3,4-tetrahydro-5H-pyrido[2,3-e][1,4]diazepin-5-one] | 500 to 3000 | 500 to 3000 | < 100 |

— patent US11401270B2, “Alcoxyamino derivatives for treating pain and pain related conditions” (ESTEVE PHARMACEUTICALS, S.A., priority 2017, dated 2022)
